Experiment: xn = mol fraction of the nth substance listed
Settings: Liquid, Vibrating tube method

Cc1ccccc1 [toluene] + CCO
mass density [kg/m3]
Settings	100 kPa	5000 kPa	10000 kPa	15000 kPa	20000 kPa	25000 kPa	30000 kPa	35000 kPa	40000 kPa	45000 kPa
283.15 K, x2 = 0	876.1	879.5	882.9	886.1	889.3	892.4	895.3	898.2	901	903.7
283.15 K, x2 = 0.125	870.4	873.9	877.4	880.7	883.8	886.9	889.9	892.8	895.6	898.4
283.15 K, x2 = 0.25	864.3	867.9	871.3	874.6	877.9	881	884	886.9	889.7	892.5
283.15 K, x2 = 0.375	857.5	861.1	864.6	867.9	871.2	874.3	877.3	880.3	883.1	885.9
283.15 K, x2 = 0.5	849.5	853.2	856.7	860.1	863.4	866.5	869.6	872.5	875.4	878.2
283.15 K, x2 = 0.625	840.2	843.9	847.5	850.9	854.2	857.4	860.5	863.5	866.4	869.2
283.15 K, x2 = 0.75	829.2	832.9	836.5	840	843.4	846.6	849.7	852.8	855.7	858.6
283.15 K, x2 = 0.875	815.4	819.2	823	826.5	829.9	833.2	836.4	839.5	842.5	845.4
293.15 K, x2 = 0	866.8	870.5	874.1	877.5	880.8	884	887.1	890.1	893	895.9
293.15 K, x2 = 0.125	861	864.7	868.3	871.8	875.1	878.4	881.5	884.6	887.5	890.4
293.15 K, x2 = 0.25	854.9	858.6	862.3	865.8	869.2	872.5	875.6	878.7	881.7	884.5
293.15 K, x2 = 0.375	848.1	851.8	855.5	859.1	862.5	865.8	869	872.1	875.1	878
293.15 K, x2 = 0.5	840.3	844	847.8	851.4	854.8	858.1	861.4	864.5	867.5	870.4
293.15 K, x2 = 0.625	831.1	834.9	838.7	842.3	845.8	849.2	852.4	855.5	858.6	861.5
293.15 K, x2 = 0.75	820.2	824.1	827.9	831.6	835.1	838.5	841.8	845	848	851
293.15 K, x2 = 0.875	806.6	810.6	814.5	818.3	821.9	825.4	828.7	831.9	835	838
303.15 K, x2 = 0	857.5	861.4	865.2	868.8	872.3	875.7	879	882.1	885.2	888.1
303.15 K, x2 = 0.125	851.4	855.4	859.2	862.9	866.4	869.9	873.2	876.4	879.4	882.5
303.15 K, x2 = 0.25	845.3	849.3	853.2	856.9	860.5	863.9	867.3	870.4	873.6	876.6
303.15 K, x2 = 0.375	838.5	842.6	846.5	850.3	853.9	857.3	860.7	863.9	867.1	870.1
303.15 K, x2 = 0.5	830.8	834.8	838.8	842.6	846.2	849.7	853.1	856.4	859.5	862.6
303.15 K, x2 = 0.625	821.7	825.8	829.8	833.7	837.3	840.9	844.3	847.6	850.7	853.8
303.15 K, x2 = 0.75	810.9	815.1	819.2	823.1	826.8	830.4	833.8	837.1	840.3	843.4
303.15 K, x2 = 0.875	797.6	801.9	806.1	810	813.8	817.4	820.9	824.3	827.5	830.6
313.15 K, x2 = 0	848.1	852.2	856.2	860	863.7	867.3	870.7	874	877.2	880.3
313.15 K, x2 = 0.125	841.8	845.9	850	853.9	857.7	861.3	864.7	868.1	871.3	874.5
313.15 K, x2 = 0.25	835.6	839.8	844	847.9	851.7	855.3	858.8	862.2	865.4	868.6
313.15 K, x2 = 0.375	828.9	833.2	837.3	841.3	845.1	848.8	852.3	855.7	859	862.2
313.15 K, x2 = 0.5	821.2	825.5	829.7	833.7	837.5	841.2	844.8	848.2	851.5	854.7
313.15 K, x2 = 0.625	812.2	816.5	820.8	824.8	828.7	832.5	836	839.4	842.8	846
313.15 K, x2 = 0.75	801.6	806	810.3	814.4	818.3	822.1	825.7	829.2	832.5	835.8
313.15 K, x2 = 0.875	788.6	793.1	797.5	801.6	805.6	809.4	813.1	816.6	819.9	823.2
323.15 K, x2 = 0	838.6	843	847.2	851.3	855.2	858.9	862.5	866	869.4	872.6
323.15 K, x2 = 0.125	832.1	836.5	840.8	845	848.9	852.7	856.3	859.9	863.3	866.5
323.15 K, x2 = 0.25	825.8	830.3	834.7	838.9	842.9	846.7	850.4	853.9	857.3	860.6
323.15 K, x2 = 0.375	819.1	823.6	828	832.3	836.3	840.2	843.8	847.4	850.9	854.2
323.15 K, x2 = 0.5	811.3	815.9	820.4	824.7	828.8	832.6	836.4	840	843.4	846.7
323.15 K, x2 = 0.625	802.5	807.1	811.6	815.9	820	824	827.7	831.3	834.8	838.1
323.15 K, x2 = 0.75	792.1	796.8	801.3	805.7	809.8	813.8	817.5	821.2	824.7	828.1
323.15 K, x2 = 0.875	779.3	784.1	788.7	793.1	797.3	801.3	805.1	808.8	812.3	815.7
333.15 K, x2 = 0	828.8	833.5	838	842.3	846.4	850.4	854.2	857.9	861.4	864.8
333.15 K, x2 = 0.125	822	826.7	831.4	835.8	839.9	843.9	847.8	851.5	855.1	858.5
333.15 K, x2 = 0.25	815.6	820.4	825.1	829.5	833.7	837.8	841.7	845.4	849	852.5
333.15 K, x2 = 0.375	808.8	813.6	818.4	822.9	827.1	831.2	835.1	838.9	842.5	846
333.15 K, x2 = 0.5	801.2	806.1	810.8	815.4	819.7	823.8	827.7	831.5	835.1	838.6
333.15 K, x2 = 0.625	792.3	797.2	802.1	806.7	811	815.2	819.1	822.9	826.6	830.1
333.15 K, x2 = 0.75	782	787	791.9	796.5	800.9	805.1	809.1	812.9	816.6	820.1
333.15 K, x2 = 0.875	769.5	774.6	779.5	784.2	788.7	792.9	796.9	800.7	804.4	808
343.15 K, x2 = 0	819.2	824.1	829	833.5	837.9	842.1	846	849.9	853.5	857
343.15 K, x2 = 0.125	811.9	817	821.9	826.6	831.1	835.3	839.3	843.2	846.9	850.5
343.15 K, x2 = 0.25	805.3	810.5	815.5	820.3	824.8	829	833.1	837	840.8	844.4
343.15 K, x2 = 0.375	798.5	803.7	808.8	813.6	818.1	822.4	826.5	830.5	834.2	837.9
343.15 K, x2 = 0.5	790.7	796	801.1	806	810.6	814.9	819	823	826.8	830.5
343.15 K, x2 = 0.625	781.9	787.3	792.5	797.4	802	806.3	810.5	814.5	818.3	822
343.15 K, x2 = 0.75	771.8	777.2	782.5	787.4	792	796.4	800.6	804.6	808.5	812.2
343.15 K, x2 = 0.875	759.6	765	770.3	775.3	780	784.4	788.6	792.7	796.5	800.2
353.15 K, x2 = 0	809.4	814.7	819.9	824.7	829.3	833.7	837.9	841.9	845.7	849.4
353.15 K, x2 = 0.125	801.7	807.2	812.5	817.4	822.2	826.7	830.9	835	838.9	842.7
353.15 K, x2 = 0.25	–	800.4	805.8	810.9	815.6	820.2	824.5	828.6	832.6	836.4
353.15 K, x2 = 0.375	–	793.4	798.9	804	808.8	813.4	817.8	821.9	825.9	829.7
353.15 K, x2 = 0.5	–	785.7	791.3	796.4	801.3	805.9	810.3	814.5	818.5	822.3
353.15 K, x2 = 0.625	–	777	782.6	787.9	792.8	797.4	801.8	806	810	813.9
353.15 K, x2 = 0.75	–	767.1	772.7	778	782.9	787.6	792	796.3	800.3	804.2
353.15 K, x2 = 0.875	–	755.1	760.8	766.1	771.1	775.8	780.3	784.5	788.6	792.4
